# US11000531B2, “Methods of treating certain depressive disorders and delirium tremens” (MARINUS PHARMACEUTICALS INC., priority 2016, dated 2021)
# Key:
# [1] = human plasma; cited from earlier work
# [2] = system: women suffering from postpartum depression; conditions: women with postpartum depression, cited from earlier work
# [3] = Ganaxolone concentration reached in 30% Captisol solutions (HPLC); format: physicochemical; conditions: dry mixing method, after 90 hours of stirring
# Experimental: 500 μl of 10% aqueous Polysorbate 80 solution in a 20 ml scintillation vial were combined with powdered ganaxolone (50 mg). The mixture was stirred to wet the ganaxolone. Solid Captisol (3.2 g), sufficient to form a 30% Captisol solution, was then added to the vial and the vial contents were mixed. Deionized water (8.0 g) was then added and the mixture was vigorously stirred at room temperature overnight to obtain a hazy solution. An aliquot was filtered through 0.2 μm syringe filter and ganaxolone concentration was assayed by HPLC to be 4.28 mg/ml.
# Ganaxolone was vigorously stirred in 30% Captisol in the presence of 10% v/v ethanol overnight to obtain a 3.16 mg/ml ganaxolone solution.
# Ganaxolone was vigorously stirred in 30% Captisol in the presence of 10% v/v glycerin overnight to obtain a 3.45 mg/ml ganaxolone solution.
# Ganaxolone was vigorously stirred in 30% Captisol in the presence of 10% v/v propylene glycol overnight to obtain a 2.53 mg/ml ganaxolone solution.
# Powdered ganaxolone (125 mg) was charged into 100 ml beaker. Captisol powder (7.9 g) was then added to the beaker. The mixture was mixed by stirring with a magnetic stir bar for 5 minutes. Deionized water (20.1 g) was weighed into a plastic cup. About half of the water was added into the beaker and the contents were vigorously stirred for 30 minutes to obtain a homogeneous mixture. […]
# [4] = Ganaxolone solubility in water
Compound,half-life [1],"mean HAM-D score lower than placebo-treated subjects ([2]; end of sixty hour intravenous infusion, baseline HAM-D greater than 25)",persistence of effects after infusion ([2]; after intravenous infusion),ganaxolone concentration after prolonged stirring [3],solubility [4]
"CC(=O)[C@H]1CC[C@H]2[C@@H]3CC[C@H]4C[C@H](O)CC[C@]4(C)[C@H]3CC[C@]12C [Allopregnanolone, 3α,5α-tetrahydroprogesterone]",about 45 minutes,12 points,30 days,–,–
"CC(=O)[C@H]1CC[C@H]2[C@@H]3CC[C@H]4C[C@](C)(O)CC[C@]4(C)[C@H]3CC[C@]12C [Ganaxolone, 3α-hydroxy, 3β-methyl-5α-pregnan-20-one]",–,–,–,remained unchanged,< 1 µg/mL
